pIC50, pKd: −log10 of the molar value. Converted amounts (≈) assume the structure as drawn.
How the values were obtained:
[1] = molecular target: T1, CDK6/cyclin D3 (Homo sapiens, UniProt Q00534); set-up: species or system Sf9
[2] = molecular target: CDK2/Cyclin A2 (Homo sapiens, UniProt P24941); set-up: species or system Sf9
[3] = system: MDA-MB-231; test: Antiproliferative activity against human MDA-MB-231 cells assessed as inhibition of cell proliferation measured after 48 hrs by CCK8 assay; assay type: functional, cell-based; settings: MDA-MB-231, 48 h
[4] = system: Jurkat; test: Antiproliferative activity against human Jurkat cells assessed as inhibition of cell proliferation measured after 48 hrs by CCK8 assay; assay type: functional, cell-based
[5] = system: MCF7; test: Antiproliferative activity against human MCF7 cells assessed as inhibition of cell proliferation measured after 48 hrs by CCK8 assay; assay type: functional, cell-based; settings: MCF7, 48 h
[6] = Cytotoxicity against human L02 cells assessed as inhibition of cell proliferation measured after 48 hrs by CCK8 assay; assay type: cell-based
[7] = system: MDA-MB-231; test: Cell cycle arrest in human MDA-MB-231 cells assessed as accumulation at S phase at 4 uM measured after 48 hrs by propidium iodide staining based flow cytometry (reference value: 26.45%); assay type: functional
[8] = system: MDA-MB-231; test: Cell cycle arrest in human MDA-MB-231 cells assessed as accumulation at G2/M phase at 4 uM measured after 48 hrs by propidium iodide staining based flow cytometry (reference value: 15.9%); assay type: functional
[9] = system: MDA-MB-231; test: Cell cycle arrest in human MDA-MB-231 cells assessed as accumulation at G0/G1 phase at 8 uM measured after 48 hrs by propidium iodide staining based flow cytometry (reference value: 57.65%); assay type: functional
[10] = system: MDA-MB-231; test: Cell cycle arrest in human MDA-MB-231 cells assessed as accumulation at G2/M phase at 8 uM measured after 48 hrs by propidium iodide staining based flow cytometry (reference value: 15.9%); assay type: functional
[11] = system: MDA-MB-231; test: Cell cycle arrest in human MDA-MB-231 cells assessed as accumulation at G0/G1 phase at 12 uM measured after 48 hrs by propidium iodide staining based flow cytometry (reference value: 57.65%); assay type: functional
[12] = system: MDA-MB-231; test: Cell cycle arrest in human MDA-MB-231 cells assessed as accumulation at G2/M phase at 12 uM measured after 48 hrs by propidium iodide staining based flow cytometry (reference value: 15.9%); assay type: functional
[13] = system: MDA-MB-231; test: Induction of apoptosis in human MDA-MB-231 cells assessed as viable cells at 4 uM measured after 48 hrs by Annexin V-FITC/propidium iodide staining based flow cytometry (95.8%); assay type: functional; settings: MDA-MB-231, 48 h, read-out: Activity
[14] = system: MDA-MB-231; test: Induction of apoptosis in human MDA-MB-231 cells assessed as early apoptotic cells at 4 uM measured after 48 hrs by Annexin V-FITC/propidium iodide staining based flow cytometry (0.877%); assay type: functional
[15] = system: MDA-MB-231; test: Induction of apoptosis in human MDA-MB-231 cells assessed as late apoptotic cells at 4 uM measured after 48 hrs by Annexin V-FITC/propidium iodide staining based flow cytometry (2.78%); assay type: functional
[16] = system: MDA-MB-231; test: Induction of apoptosis in human MDA-MB-231 cells assessed as necrotic cells at 4 uM measured after 48 hrs by Annexin V-FITC/propidium iodide staining based flow cytometry (0.498%); assay type: functional
[17] = system: MDA-MB-231; test: Induction of apoptosis in human MDA-MB-231 cells assessed as viable cells at 8 uM measured after 48 hrs by Annexin V-FITC/propidium iodide staining based flow cytometry (95.8%); assay type: functional; settings: MDA-MB-231, 48 h, read-out: Activity
[18] = system: MDA-MB-231; test: Induction of apoptosis in human MDA-MB-231 cells assessed as early apoptotic cells at 8 uM measured after 48 hrs by Annexin V-FITC/propidium iodide staining based flow cytometry (0.877%); assay type: functional
[19] = system: MDA-MB-231; test: Induction of apoptosis in human MDA-MB-231 cells assessed as late apoptotic cells at 8 uM measured after 48 hrs by Annexin V-FITC/propidium iodide staining based flow cytometry (2.78%); assay type: functional
[20] = system: MDA-MB-231; test: Induction of apoptosis in human MDA-MB-231 cells assessed as necrotic cells at 8 uM measured after 48 hrs by Annexin V-FITC/propidium iodide staining based flow cytometry (0.498%); assay type: functional
[21] = system: MDA-MB-231; test: Induction of apoptosis in human MDA-MB-231 cells assessed as early apoptotic cells at 12 uM measured after 48 hrs by Annexin V-FITC/propidium iodide staining based flow cytometry (0.877%); assay type: functional
[22] = system: MDA-MB-231; test: Induction of apoptosis in human MDA-MB-231 cells assessed as late apoptotic cells at 12 uM measured after 48 hrs by Annexin V-FITC/propidium iodide staining based flow cytometry (2.78%); assay type: functional
[23] = molecular target: CDK9/cyclin T1 (Homo sapiens, UniProt P50750); test: Binding affinity to recombinant full-length GFP-fused CDK9/His-tagged cyclin T1 (unknown origin) expressed in HEK293T cells measured after 30 mins by microscale thermophoresis method; set-up: species or system HEK-293T
Chain of CDK9/cyclin T1 (O60563 whole entry, the tested form may be a part): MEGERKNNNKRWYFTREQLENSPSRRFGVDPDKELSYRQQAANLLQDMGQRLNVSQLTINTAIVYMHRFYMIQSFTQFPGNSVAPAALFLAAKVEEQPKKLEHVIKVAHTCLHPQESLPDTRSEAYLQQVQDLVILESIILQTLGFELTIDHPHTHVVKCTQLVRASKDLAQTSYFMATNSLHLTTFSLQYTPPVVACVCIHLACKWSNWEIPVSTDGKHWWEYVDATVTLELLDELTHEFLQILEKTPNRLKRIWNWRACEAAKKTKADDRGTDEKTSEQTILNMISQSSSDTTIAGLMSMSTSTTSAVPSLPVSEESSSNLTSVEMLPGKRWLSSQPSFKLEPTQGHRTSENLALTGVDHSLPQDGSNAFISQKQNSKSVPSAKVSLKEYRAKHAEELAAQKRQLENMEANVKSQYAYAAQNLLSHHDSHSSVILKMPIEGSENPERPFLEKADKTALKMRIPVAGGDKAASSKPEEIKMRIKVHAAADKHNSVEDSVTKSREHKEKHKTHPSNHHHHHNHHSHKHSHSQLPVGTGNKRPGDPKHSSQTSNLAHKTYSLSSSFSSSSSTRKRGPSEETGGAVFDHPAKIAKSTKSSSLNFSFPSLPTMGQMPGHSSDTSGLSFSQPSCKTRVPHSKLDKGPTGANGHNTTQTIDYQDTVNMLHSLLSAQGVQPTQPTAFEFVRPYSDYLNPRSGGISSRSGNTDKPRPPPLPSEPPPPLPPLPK
Chain of CDK9/cyclin T1 (P50750 whole entry, the tested form may be a part): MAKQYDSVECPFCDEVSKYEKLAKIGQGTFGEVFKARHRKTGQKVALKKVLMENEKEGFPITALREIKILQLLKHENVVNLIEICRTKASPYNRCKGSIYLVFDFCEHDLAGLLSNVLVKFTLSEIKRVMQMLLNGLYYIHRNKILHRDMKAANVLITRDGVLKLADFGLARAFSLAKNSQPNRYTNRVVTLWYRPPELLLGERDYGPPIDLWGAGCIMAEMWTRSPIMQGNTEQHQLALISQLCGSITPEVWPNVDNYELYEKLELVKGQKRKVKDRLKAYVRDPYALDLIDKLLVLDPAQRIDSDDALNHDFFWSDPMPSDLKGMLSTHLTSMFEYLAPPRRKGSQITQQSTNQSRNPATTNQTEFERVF

[24] = molecular target: T1, CDK6/cyclin D3; test: Binding affinity to recombinant full-length GFP-fused CDK6/His-tagged cyclin D3 (unknown origin) expressed in HEK293T cells measured after 30 mins by microscale thermophoresis method; set-up: species or system HEK-293T
[25] = Thermodynamic equilibrium solubility in water by HPLC-based shake flask method; assay type: physicochemical; settings: read-out: Therm_solubility
[26] = Thermodynamic equilibrium solubility in normal saline by HPLC-based shake flask method; assay type: physicochemical; settings: read-out: Therm_solubility
[27] = Octanol-water partition coefficient, log P of the compound by HPLC-based shake flask method; assay type: physicochemical
[28] = Apparent permeability in human Caco2 cells measured after 90 mins by LC-MS/MS analysis; assay type: ADME, cell-based; settings: Caco-2
[29] = Half life in human hepatocytes by LC-MS/MS analysis; assay type: ADME, cell-based, Hepatocyte
[30] = Clearance in human hepatocytes assessed per million cells by LC-MS/MS analysis; assay type: ADME, cell-based, Hepatocyte; settings: read-out: CLH
[31] = Stability in mouse hepatocytes assessed as parent compound remaining after 120 mins by LC-MS/MS analysis; assay type: ADME, cell-based, Hepatocyte; settings: read-out: Stability
[32] = Cmax in Sprague-Dawley rat at 2 mg/kg, iv by LC-MS/MS analysis; assay type: ADME, organism-based; set-up: dose 2 mg/kg, route intravenous; settings: in vivo
[33] = Clearance in Sprague-Dawley rat at 2 mg/kg, iv by LC-MS/MS analysis; assay type: ADME, organism-based; settings: in vivo
[34] = Tmax in Sprague-Dawley rat at 10 mg/kg, po by LC-MS/MS analysis; assay type: ADME, organism-based; settings: in vivo
[35] = AUC (0 to infinity) in Sprague-Dawley rat at 10 mg/kg, po by LC-MS/MS analysis; assay type: ADME, organism-based; set-up: dose 10 mg/kg, time infinity, route oral; settings: in vivo
[36] = Clearance in Sprague-Dawley rat at 10 mg/kg, po by LC-MS/MS analysis; assay type: ADME, organism-based; settings: in vivo
[37] = Oral bioavailability in Sprague-Dawley rat at 10 mg/kg by LC-MS/MS analysis; assay type: ADME, organism-based; settings: in vivo
[38] = Toxicity in ICR mouse assessed as weight loss at 500 mg/kg, po administered as single dose measured for 7 days; assay type: organism-based; settings: in vivo, 168 h
[39] = Toxicity in ICR mouse assessed as toxic reaction at 500 mg/kg, po administered as single dose measured for 7 days; assay type: organism-based; settings: in vivo, 168 h
[40] = Toxicity in human MDA-MB-231 cells xenografted BALB/c nu/nu mouse assessed as body weight loss at 22.5 to 90 mg/kg, po administered once daily for 3 weeks and measured at 3 days interval during compound dosing; assay type: organism-based; settings: in vivo
[41] = molecular target: Cyclin-dependent kinase 5/CDK5 activator 1 (Homo sapiens, UniProt Q00535); settings: Sf9, human, read-out: INH
Chain of Cyclin-dependent kinase 5/CDK5 activator 1 (Q00535 whole entry): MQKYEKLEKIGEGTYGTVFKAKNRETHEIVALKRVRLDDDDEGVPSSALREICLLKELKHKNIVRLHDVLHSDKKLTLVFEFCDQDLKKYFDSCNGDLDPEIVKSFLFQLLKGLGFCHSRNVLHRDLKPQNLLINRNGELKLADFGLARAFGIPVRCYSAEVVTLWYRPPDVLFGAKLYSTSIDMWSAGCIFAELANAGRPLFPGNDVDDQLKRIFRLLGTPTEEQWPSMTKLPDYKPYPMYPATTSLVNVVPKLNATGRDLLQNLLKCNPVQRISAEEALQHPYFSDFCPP
Chain of Cyclin-dependent kinase 5/CDK5 activator 1 (Q15078 whole entry, further chain): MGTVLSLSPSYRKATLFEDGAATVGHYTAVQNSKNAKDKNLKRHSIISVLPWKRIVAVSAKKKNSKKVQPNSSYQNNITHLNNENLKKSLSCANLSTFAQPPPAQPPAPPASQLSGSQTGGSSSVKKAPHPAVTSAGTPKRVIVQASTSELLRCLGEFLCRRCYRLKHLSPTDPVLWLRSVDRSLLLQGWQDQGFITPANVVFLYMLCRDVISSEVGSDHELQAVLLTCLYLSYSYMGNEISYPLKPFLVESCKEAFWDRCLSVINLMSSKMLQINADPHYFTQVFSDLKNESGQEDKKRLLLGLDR

T1 sequence (P30281 whole entry): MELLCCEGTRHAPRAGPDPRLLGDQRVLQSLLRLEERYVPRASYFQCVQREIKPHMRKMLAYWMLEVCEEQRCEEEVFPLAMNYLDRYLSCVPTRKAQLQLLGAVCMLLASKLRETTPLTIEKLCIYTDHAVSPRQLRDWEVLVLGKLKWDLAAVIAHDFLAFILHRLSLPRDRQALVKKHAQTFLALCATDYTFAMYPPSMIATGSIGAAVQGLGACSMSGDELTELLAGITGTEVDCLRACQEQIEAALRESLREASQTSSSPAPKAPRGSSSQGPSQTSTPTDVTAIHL
T1 sequence (Q00534 whole entry): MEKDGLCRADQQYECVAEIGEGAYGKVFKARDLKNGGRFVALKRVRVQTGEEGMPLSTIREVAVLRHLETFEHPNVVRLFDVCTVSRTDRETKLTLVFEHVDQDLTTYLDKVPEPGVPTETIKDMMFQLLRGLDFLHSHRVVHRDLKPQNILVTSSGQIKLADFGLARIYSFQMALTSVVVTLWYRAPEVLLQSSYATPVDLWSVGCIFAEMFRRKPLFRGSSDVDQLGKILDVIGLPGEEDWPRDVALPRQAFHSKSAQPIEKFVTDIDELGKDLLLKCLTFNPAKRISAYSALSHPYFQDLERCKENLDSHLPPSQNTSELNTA

For `CC(=O)Nc1cccc(Nc2nc(Nc3ccc(N4CCN(C)CC4)cn3)ncc2Cl)c1`, the pIC50 [1] was 7.39, the pIC50 [2] was under 5.00 and the pIC50 [3] was 5.09 to 5.40. For the same compound, the pIC50 [4] was 5.09 to 5.40, the pIC50 [5] was 5.09 to 5.40 and the GI50 at 48 h [6] was over 100 µM. It also gave an Activity [7] of 18.97%, an Activity [8] of 9.18% and an Activity [9] of 77.51%. For the same compound, the Activity [10] was 8.13%, the Activity [11] was 50.5% and the Activity [12] was 34.27%. For the same compound, the viability at 4 µM [13] was 94.2%, the Activity [14] was 2.08% and the Activity [15] was 3.15%. For the same compound, the Activity [16] was 0.57%, the viability at 8 µM [17] was 87.5% and the Activity [18] was 5.06%. For the same compound, the Activity [19] was 6.72%, the Activity [20] was 0.766% and the Activity [21] was 16.4%. The Activity [22] was 26.4%, the pKd [23] was 7.52 and the pKd [24] was 7.15. For the same compound, the solubility thermodynamic [25] was 340 µg/mL (≈ 751 µM), the solubility thermodynamic [26] was 214 µg/mL (≈ 472 µM) and the logP [27] was 1.23. The Papp at 1.5 h [28] was 1.7 ×10⁻⁶ cm/s, the half-life [29] was 1.53 h and the hepatocyte CLint [30] was 7.5 µL/min/1e6 cells. The remaining at 2 h [31] was 12%, the Cmax [32] was 995 ng/mL and the clearance [33] was 52.2 mL/min/kg. For the same compound, the Tmax [34] was 4 h, the AUC(0-inf) [35] was 926 ng·h/mL and the CL/F [36] was 180 mL/min/kg. For the same compound, the bioavailability [37] was 28.9%, the Activity [38] was “Non-Toxic” and the Activity [39] was “Non-Toxic”. The Activity [40] was “Non-Toxic” and the inhibition at 1 µM [41] was under 6.6%.

— ChEMBL document CHEMBL4602695, “Discovery and SARs of 5-Chloro-N4-phenyl-N2-(pyridin-2-yl)pyrimidine-2,4-diamine Derivatives as Oral Available and Dual CDK 6 and 9 Inhibitors with Potent Antitumor Activity” (J Med Chem, 2020)
